Source: PubChem BioAssay AID1845219 (Molecular Pharmacology Branch, DTP, NCI, 2023)

Test system: SYO-1 tumor spheroids, viability % test/control
Assay: Anticancer human tumor SYO-1 cell line growth inhibition;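 note: spheroids exposed to agents for 7 days before viability read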;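 for viability, T/C: 100% = DMSO vehicle control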
Settings: spheroids with HUVEC and MSC; for IC50: curve of first compound; for viability, T/C: stronger effect = lower value; active = viability on the fitted dose curve at most 10% of control; inactive = the rest
Method in brief: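 Complex tumor spheroids combined malignant cells with endothelial cells and mesenchymal stem cells. DNA-damaging drugs and DNA repair inhibitors were tested alone and in combination, at half-log dilutions down from clinical Cmax (top 10 microM if Cmax unknown), 0.25% DMSO final.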

CNCc1ccc(-c2cc(-c3nc(-c4ccc(S(=O)(=O)C(C)C)cc4)cnc3N)on2)cc1 + CC[C@@]1(O)C(=O)OCc2c1cc1n(c2=O)Cc2cc3c(CN(C)C)c(O)ccc3nc2-1
inactive: viability, T/C (second compound 0.003 µM, first compound 0.00949 µM) 85.4% | viability, T/C (second compound 0.003 µM, first compound 0.03 µM) 42.5%
24.5 nM: IC50 (second compound 0.003 µM)
< 9.49 nM: IC50 (second compound 0.00949 µM) | IC50 (second compound 0.03 µM) | IC50 (second compound 0.0949 µM) | IC50 (second compound 0.3 µM)
active: viability, T/C (second compound 0.003 µM, first compound 0.0949 µM) 3.75% | viability, T/C (second compound 0.003 µM, first compound 0.3 µM) 2.18% | viability, T/C (second compound 0.003 µM, first compound 0.949 µM) 0.36% | viability, T/C (second compound 0.003 µM, first compound 3 µM) 0.11% | viability, T/C (second compound 0.00949 µM, first compound 0.00949 µM) 4.64% | viability, T/C (second compound 0.00949 µM, first compound 0.03 µM) 3.26% | viability, T/C (second compound 0.00949 µM, first compound 0.0949 µM) 2.57% | viability, T/C (second compound 0.00949 µM, first compound 0.3 µM) 1.53% | viability, T/C (second compound 0.00949 µM, first compound 0.949 µM) 0.14% | viability, T/C (second compound 0.00949 µM, first compound 3 µM) 0.09% | viability, T/C (second compound 0.03 µM, first compound 0.00949 µM) 1.95% | viability, T/C (second compound 0.03 µM, first compound 0.03 µM) 2.01% | viability, T/C (second compound 0.03 µM, first compound 0.0949 µM) 2.63% | viability, T/C (second compound 0.03 µM, first compound 0.3 µM) 2.32% | viability, T/C (second compound 0.03 µM, first compound 0.949 µM) 0.17% | viability, T/C (second compound 0.03 µM, first compound 3 µM) 0.1% | viability, T/C (second compound 0.0949 µM, first compound 0.00949 µM) 1.79% | viability, T/C (second compound 0.0949 µM, first compound 0.03 µM) 1.82% | viability, T/C (second compound 0.0949 µM, first compound 0.0949 µM) 2.21% | viability, T/C (second compound 0.0949 µM, first compound 0.3 µM) 1.43% | viability, T/C (second compound 0.0949 µM, first compound 0.949 µM) 0.17% | viability, T/C (second compound 0.0949 µM, first compound 3 µM) 0.11% | viability, T/C (second compound 0.3 µM, first compound 0.00949 µM) 1.93% | viability, T/C (second compound 0.3 µM, first compound 0.03 µM) 1.65% | viability, T/C (second compound 0.3 µM, first compound 0.0949 µM) 1.95% | viability, T/C (second compound 0.3 µM, first compound 0.3 µM) 1.63% | viability, T/C (second compound 0.3 µM, first compound 0.949 µM) 0.24% | viability, T/C (second compound 0.3 µM, first compound 3 µM) 0.17%

[2H]c1nc(C)nc([2H])c1-c1cc(NC[C@@H](C)c2cccc3c(C(=O)NC)ccnc23)ncn1 + Cn1nnc2c(C(N)=O)ncn2c1=O
inactive: viability, T/C (second compound 1 µM, first compound 0.0316 µM) 105% | viability, T/C (second compound 1 µM, first compound 0.1 µM) 105% | viability, T/C (second compound 1 µM, first compound 0.316 µM) 102% | viability, T/C (second compound 1 µM, first compound 1 µM) 98.9% | viability, T/C (second compound 1 µM, first compound 3.16 µM) 93.3% | viability, T/C (second compound 1 µM, first compound 10 µM) 83% | viability, T/C (second compound 3.16 µM, first compound 0.0316 µM) 110% | viability, T/C (second compound 3.16 µM, first compound 0.1 µM) 113% | viability, T/C (second compound 3.16 µM, first compound 0.316 µM) 105% | viability, T/C (second compound 3.16 µM, first compound 1 µM) 96.5% | viability, T/C (second compound 3.16 µM, first compound 3.16 µM) 90% | viability, T/C (second compound 3.16 µM, first compound 10 µM) 84.8% | viability, T/C (second compound 10 µM, first compound 0.0316 µM) 109% | viability, T/C (second compound 10 µM, first compound 0.1 µM) 106% | viability, T/C (second compound 10 µM, first compound 0.316 µM) 106% | viability, T/C (second compound 10 µM, first compound 1 µM) 96.1% | viability, T/C (second compound 10 µM, first compound 3.16 µM) 90.2% | viability, T/C (second compound 10 µM, first compound 10 µM) 88.4% | viability, T/C (second compound 31.6 µM, first compound 0.0316 µM) 115% | viability, T/C (second compound 31.6 µM, first compound 0.1 µM) 109% | viability, T/C (second compound 31.6 µM, first compound 0.316 µM) 110% | viability, T/C (second compound 31.6 µM, first compound 1 µM) 102% | viability, T/C (second compound 31.6 µM, first compound 3.16 µM) 96.4% | viability, T/C (second compound 31.6 µM, first compound 10 µM) 94% | viability, T/C (second compound 100 µM, first compound 0.0316 µM) 113% | viability, T/C (second compound 100 µM, first compound 0.1 µM) 115% | viability, T/C (second compound 100 µM, first compound 0.316 µM) 111% | viability, T/C (second compound 100 µM, first compound 1 µM) 110% | viability, T/C (second compound 100 µM, first compound 3.16 µM) 93.7% | viability, T/C (second compound 100 µM, first compound 10 µM) 94.3%
> 10000 nM: IC50 (second compound 1 µM) | IC50 (second compound 3.16 µM) | IC50 (second compound 10 µM) | IC50 (second compound 31.6 µM) | IC50 (second compound 100 µM)
